Laboratory results: paper PMC10380810, “Nitazoxanide Inhibits the Bifunctional Enzyme GlG6PD::6PGL of Giardia lamblia: Biochemical and In Silico Characterization of a New Druggable Target” (International Journal of Molecular Sciences, 2023)

Target: T1, GlG6PD::6PGL (fused bifunctional glucose-6-phosphate dehydrogenase::6-phosphogluconolactonase) (Giardia duodenalis, UniProt A8BWM5)
T1 construct: gene GL50803_008682; recombinant fused GlG6PD::6PGL; activity of the G6PD domain measured
Assay: residual G6PD activity at […] nm after […] h preincubation at […] °C with purified recombinant enzyme; k2 […] ^-1 s^-1; intrinsic and ANS fluorescence changes
Assay type: biochemical

T1 sequence (A8BWM5 entry or part of it): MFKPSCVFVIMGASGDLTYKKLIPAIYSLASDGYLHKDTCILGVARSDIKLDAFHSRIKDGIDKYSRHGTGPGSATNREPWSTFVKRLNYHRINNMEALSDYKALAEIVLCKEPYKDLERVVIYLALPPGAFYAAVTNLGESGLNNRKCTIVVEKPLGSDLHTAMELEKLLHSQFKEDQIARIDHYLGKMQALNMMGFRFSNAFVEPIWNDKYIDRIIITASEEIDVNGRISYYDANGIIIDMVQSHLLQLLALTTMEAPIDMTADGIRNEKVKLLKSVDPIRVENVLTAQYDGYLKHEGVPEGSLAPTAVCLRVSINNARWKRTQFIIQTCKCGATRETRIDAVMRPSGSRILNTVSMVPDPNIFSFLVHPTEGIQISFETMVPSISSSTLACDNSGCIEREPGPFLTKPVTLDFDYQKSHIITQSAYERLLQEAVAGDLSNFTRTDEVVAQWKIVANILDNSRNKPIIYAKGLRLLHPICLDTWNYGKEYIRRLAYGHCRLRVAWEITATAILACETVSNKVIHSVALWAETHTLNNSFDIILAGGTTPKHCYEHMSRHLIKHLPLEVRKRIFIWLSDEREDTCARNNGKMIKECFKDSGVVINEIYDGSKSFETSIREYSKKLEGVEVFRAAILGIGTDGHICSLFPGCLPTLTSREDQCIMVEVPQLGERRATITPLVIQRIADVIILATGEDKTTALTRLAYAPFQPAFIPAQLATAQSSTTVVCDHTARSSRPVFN

SMILES: CC(=O)Oc1ccccc1C(=O)Nc1ncc([N+](=O)[O-])s1 [NTZ, 2-acetyloloxy-N-(5-nitro-2thiazolyl)benzamide]
- IC50: 40 µM
